Experimental data: patent US6573275B1, “Bicyclic amines” (Syngenta Limited, priority 1995, dated 2003)

What follows are compounds tested on peach aphid (Myzus persicae) (assay: Insecticidal test against peach aphid, infested Chinese cabbage leaves sprayed). Details: peach aphid (Myzus persicae) on Chinese cabbage leaves, sprayed with 500 ppm composition unless otherwise stated, mortality assessed after 3 days.
Assay type: in vivo
How it was run: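 Aphid-infested Chinese cabbage leaves were sprayed with compound at 500 ppm unless otherwise stated, formulated in acetone/ethanol diluted with water containing 0.05% Synperonic NP8. Mortality was assessed after 3 days.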

| Compound | Score (grading of mortality) |
| --- | --- |
| CC(=O)OCC(C)(c1ccccc1)N1C2CCC1CC(C#N)(c1cncc(Cl)c1)C2 (stereo not drawn) [Compound 178, exo-3-(5-chloropyrid-3-yl)-endo-3-cyano-8-(2-phenyl-3-acetoxyprop-2-yl)-8-azabicyclo[3.2.1]octane] | A (A indicates 80-100% mortality) |
| CC(F)(CN1C2CCC1CC(C#N)(c1cncc(Cl)c1)C2)c1ccccc1 (stereo not drawn) [Compound 179, exo-3-(5-chloropyrid-3-yl)-endo-3-cyano-8-(2-fluoro-2-phenylprop-1-yl)-8-azabicyclo[3.2.1]octane] | A (A indicates 80-100% mortality) |
| CC(C)CC(C)(C)CCN1C2CCC1CC(C#N)(c1cncc(Cl)c1)C2 (stereo not drawn) [Compound 180] | A (A indicates 80-100% mortality) |
| C=COC(=O)N1C2CCC1CC(C#N)(c1cncc(Br)c1)C2 (stereo not drawn) [Compound 181] | A (A indicates 80-100% mortality) |
| N#CC1(c2cncc(Cl)c2)CC2CCC(C1)N2c1ncccn1 (stereo not drawn) [Compound 182] | A (A indicates 80-100% mortality) |
| C=COC(=O)N1C2CCC1CC(C#N)(c1cncc(C(F)(F)F)c1)C2 (stereo not drawn) [Compound 183] | A (A indicates 80-100% mortality) |
| N#CC1(c2cncc(C(F)(F)F)c2)CC2CCC(C1)N2 (stereo not drawn) [Compound 184] | A (A indicates 80-100% mortality) |
| C=COC(=O)N1C2CCC1CC(C#N)(c1cccnc1)C2 (stereo not drawn) [Compound 185, exo-3-(Pyrid-3-yl)-endo-3-cyano-8-(vinyloxycarbonyl)-8-azabicyclo[3.2.1]octane] | A (A indicates 80-100% mortality) |
| N#CC1(c2cncc(C(F)(F)F)c2)CC2CCC(C1)N2Cc1cccc(Cl)c1 (stereo not drawn) [Compound 186] | A (A indicates 80-100% mortality) |
| N#CC1(c2cncc(Cl)c2)CC2CCC(C1)N2c1ccnc(Cl)n1 (stereo not drawn) [Compound 187] | C (C indicates less than 40% mortality) |
| N#CC1(c2cncc(Cl)c2)CC2CCC(C1)N2c1ccc(C(F)(F)F)cc1 (stereo not drawn) [Compound 188] | A (A indicates 80-100% mortality) |
| CN1C2CCC1CC(C#N)(c1cncc(-n3cccc3)c1)C2 (stereo not drawn) [Compound 189, exo-3-(5-(pyrrol-1-yl)pyrid-3-yl)-endo-3-cyano-8-methyl-8-azabicyclo[3.2.1]octane] | A (A indicates 80-100% mortality) |
| CC(C)NC(C)(CN1C2CCC1CC(C#N)(c1cncc(Cl)c1)C2)c1ccccc1 (stereo not drawn) [Compound 191, exo-3-(5-chloropyrid-3-yl)-endo-3-cyano-8-(2-(isopropylamino)-2-phenylprop-1-yl)-8-azabicyclo[3.2.1]octane] | A (A indicates 80-100% mortality) |
| CC(c1ccccc1)(C(O)C#N)N1C2CCC1CC(C#N)(c1cncc(Cl)c1)C2 (stereo not drawn) [Compound 192, exo-3-(5-chloropyrid-3-yl)-endo-3-cyano-8-(1-hydroxy-1-cyano-2-phenylprop-2-yl)-8-azabicyclo[3.2.1]octane] | A (A indicates 80-100% mortality) |
| C#Cc1cncc(C2(C#N)CC3CCC(C2)N3C)c1 (stereo not drawn) [Compound 193, exo-3-(5-ethynylpyrid-3-yl)-endo-3-cyano-8-methyl-8-azabicyclo[3.2.1]octane] | A (A indicates 80-100% mortality) |
| CN1C2CCC1CC(C#N)(c1ccncn1)C2 (stereo not drawn) [Compound 194] | A (A indicates 80-100% mortality) |
| C=C(OCC)c1cncc(C2(C#N)CC3CCC(C2)N3C)c1 (stereo not drawn) [Compound 195, exo-3-(5-(1-ethoxyvinyl)pyrid-3-yl)-endo-3-cyano-8-methyl-8-azabicyclo[3.2.1]octane] | A (A indicates 80-100% mortality) |
| CCC(C)(C)N1C2CCC1CC(C#N)(c1cccnc1)C2 (stereo not drawn) [Compound 196] | A (A indicates 80-100% mortality) |
| CCOC(=O)C(C)N1C2CCC1CC(C#N)(c1cncc(Cl)c1)C2 (stereo not drawn) [Compound 197, exo-3-(5-chloropyrid-3-yl)-endo-3-cyano-8-(1-(ethoxycarbonyl)ethyl)-8-azabicyclo[3.2.1]octane] | A (A indicates 80-100% mortality) |
| CN1C2CCC1CC(C#N)(c1ncncc1Br)C2 (stereo not drawn) [Compound 198] | A (A indicates 80-100% mortality) |
| N#CC1(c2cncc(C(F)(F)F)c2)CC2CCC(C1)N2CC(F)(F)F (stereo not drawn) [Compound 199] | A (A indicates 80-100% mortality) |
| CN1C2CCC1CC(C#N)(c1cc(-c3ccncn3)ncn1)C2 (stereo not drawn) [Compound 200] | A (A indicates 80-100% mortality) |
| CC(=O)c1cncc(C2(C#N)CC3CCC(C2)N3C)c1 (stereo not drawn) [Compound 201, exo-3-(5-acetylpyrid-3-yl)-endo-3-cyano-8-methyl-8-azabicyclo[3.2.1]octane] | A (A indicates 80-100% mortality) |
| CN1C2CCC1CC(C#N)(c1cncc(F)c1)C2 (stereo not drawn) [Compound 202, exo-3-(5-fluoropyrid-3-yl)-endo-3-cyano-8-methyl-8-azabicyclo[3.2.1]octane] | A (A indicates 80-100% mortality) |
| N#CC1(c2cncc(Br)c2)CC2CCC(C1)N2 (stereo not drawn) [Compound 203] | A (A indicates 80-100% mortality) |
| N#CC1(c2cncc(Br)c2)CC2CCC(C1)N2Cc1ccccc1Cl (stereo not drawn) [Compound 204] | A (A indicates 80-100% mortality) |

| Compound | Score (grading of mortality) |
| --- | --- |
| CC(C)(c1cccc(Cl)c1)N1C2CCC1CC(C#N)(c1cncc(Cl)c1)C2 (stereo not drawn) [Compound 205] | A (A indicates 80-100% mortality) |
| CN1C2CCC1CC(C#N)(c1cncc(C(C)(C)O)c1)C2 (stereo not drawn) [Compound 206] | A (A indicates 80-100% mortality) |
| C#CC(C)(C)N1C2CCC1CC(C#N)(c1cncc(Cl)c1)C2 (stereo not drawn) [Compound 207] | A (A indicates 80-100% mortality) |
| CCOC(=O)N1C2CCC1CC(C#N)(c1cncc(Br)c1)C2 (stereo not drawn) [Compound 208] | A (A indicates 80-100% mortality) |
| CC(C)(N1C2CCC1CC(C#N)(c1cncc(Cl)c1)C2)C(F)(F)F (stereo not drawn) [Compound 209, exo-3-(5-chloropyrid-3-yl)-endo-3-cyano-8-(1,1-dimethyl-2,2,2-trifluoroethyl)-8-azabicyclo[3.2.1]octane] | A (A indicates 80-100% mortality) |
| CC(C)CN1C2CCC1CC(C#N)(c1cncc(Br)c1)C2 (stereo not drawn) [Compound 210] | A (A indicates 80-100% mortality) |
| COc1cncc(C2(C#N)CC3CCC(C2)N3C)n1 (stereo not drawn) [Compound 214] | A (A indicates 80-100% mortality) |
| N#CC(c1cccc(Cl)c1)N1C2CCC1CC(C#N)(c1cncc(Cl)c1)C2 (stereo not drawn) [Compound 215] | A (A indicates 80-100% mortality) |
| C=COC(=O)N1C2CCC1CC(C#N)(c1cncc(-c3ccccc3)c1)C2 (stereo not drawn) [Compound 217, exo-3-(5-phenylpyrid-3-yl)-endo-3-cyano-8-(vinyloxycarbonyl)-8-azabicyclo[3.2.1]octane] | A (A indicates 80-100% mortality) |
| N#CC1(c2cncc(Cl)c2)CC2CCC(C1)N2CCC=C(F)F (stereo not drawn) [Compound 218] | A (A indicates 80-100% mortality) |
| N#CC1(c2cncc(-c3ccccc3)c2)CC2CCC(C1)N2 (stereo not drawn) [Compound 220, exo-3-(5-phenylpyrid-3-yl)-endo-3-cyano-8-azabicyclo[3.2.1]octane] | A (A indicates 80-100% mortality) |
| C=COC(=O)N1C2CCC1CC(C#N)(c1cncc(C)c1)C2 (stereo not drawn) [Compound 221, exo-3-(5-methylpyrid-3-yl)-endo-3-cyano-8-(vinyloxycarbonyl)-8-azabicyclo[3.2.1]octane] | A (A indicates 80-100% mortality) |
| C=COC(=O)N1C2CCC1CC(C#N)(c1cncc(C(=O)OCC)c1)C2 (stereo not drawn) [Compound 222, exo-3-(5-(ethoxycarbonyl)pyrid-3-yl)-endo-3-cyano-8-(vinyloxycarbonyl)-8-azabicyclo[3.2.1]octane] | C (C indicates less than 40% mortality) |
| CC(C)(C#N)N1C2CCC1CC(C#N)(c1cncc(Cl)c1)C2 (stereo not drawn) [Compound 223, exo-3-(5-chloropyrid-3-yl)-endo-3-cyano-8-(2-cyanoprop-2-yl)-8-azabicyclo[3.2.1]octane] | C (C indicates less than 40% mortality) |
| CCOC(=O)c1cncc(C2(C#N)CC3CCC(C2)N3)c1 (stereo not drawn) [Compound 225] | A (A indicates 80-100% mortality) |
| N#CC1(c2cncc(Cl)c2)CC2CCC(C1)N2Cc1cc(C(F)(F)F)cc(C(F)(F)F)c1 (stereo not drawn) [Compound 227] | A (A indicates 80-100% mortality) |
| N#CC1(c2cncc(Cl)c2)CC2CCC(C1)N2Cc1c(F)cccc1F (stereo not drawn) [Compound 228] | A (A indicates 80-100% mortality) |
| N#CC1(c2cncc(Cl)c2)CC2CCC(C1)N2Cc1cccc(Oc2ccccc2)c1 (stereo not drawn) [Compound 229] | A (A indicates 80-100% mortality) |
| N#CC1(c2cncc(Cl)c2)CC2CCC(C1)N2Cc1ccc(F)c(Br)c1 (stereo not drawn) [Compound 230] | A (A indicates 80-100% mortality) |
| N#CC1(c2cncc(Cl)c2)CC2CCC(C1)N2Cc1cccc(C(=O)c2ccccc2)c1 (stereo not drawn) [Compound 231] | A (A indicates 80-100% mortality) |
| N#CC1(c2cncc(Cl)c2)CC2CCC(C1)N2Cc1cccc(C(=O)c2c(Cl)cccc2Cl)c1 (stereo not drawn) [Compound 232] | A (A indicates 80-100% mortality) |
| N#CC1(c2cncc(Cl)c2)CC2CCC(C1)N2Cc1cccc(C(=O)c2c(F)cccc2F)c1 (stereo not drawn) [Compound 233] | A (A indicates 80-100% mortality) |
| C=CCc1c(F)c(F)c(CN2C3CCC2CC(C#N)(c2cncc(Cl)c2)C3)c(F)c1F (stereo not drawn) [Compound 234] | A (A indicates 80-100% mortality) |
| N#CC1(c2cncc(Cl)c2)CC2CCC(C1)N2Cc1cccc(OC(F)(F)F)c1 (stereo not drawn) [Compound 235] | A (A indicates 80-100% mortality) |
| N#CC1(c2cncc(Cl)c2)CC2CCC(C1)N2Cc1cccc2ccccc12 (stereo not drawn) [Compound 236] | A (A indicates 80-100% mortality) |
